Values after ≈ are worked out from the molar mass of the structure shown. Like-named read-outs stand apart in the source and are kept apart here.
What was measured:
[1] = tested on: APC-resistant Haemophilus influenza.; experiment: MIC90, agar plate dilution method (NCCLS), Table 2; assay type: cell-based; details: for MIC90 Range: APC-resistant Haemophilus influenza., 10 isolates; for MIC90: Haemophilus
Procedure: (§1) The MIC90 values for this test were determined by the agar plate dilution method according to the National Committee for Clinical Laboratory Standards (“NCCLS”).

[2] = tested on: GM-resistant P. aeruginosa; experiment: MIC90, agar plate dilution method (NCCLS), Table 2; assay type: cell-based; details: 10 isolates; for MIC90: Pseudomonas aeruginosa
Procedure: as §1

GM-resistant S. aureus = experiment: MIC90, agar plate dilution method (NCCLS), Table 2; assay type: cell-based; details: Staphylococcus aureus, 10 isolates
Procedure: as §1

[3] = tested on: OFLX-resistant Enterobacteriaceae; experiment: MIC90, agar plate dilution method (NCCLS), Table 2; assay type: cell-based; details: for MIC90 Range: OFLX-resistant Enterobacteriaceae, 10 isolates
Procedure: as §1

OFLX-resistant S. aureus = experiment: MIC90, agar plate dilution method (NCCLS), Table 2; assay type: cell-based; details: Staphylococcus aureus, 10 isolates
Procedure: as §1

[4] = tested on: PCG-resistant S. pneumoniae; experiment: MIC90, agar plate dilution method (NCCLS), Table 2; assay type: cell-based; details: 10 isolates; for MIC90: Streptococcus pneumoniae
Procedure: as §1

[5] = tested on: Ofloxacin-resistant Enterobacteriaceae; experiment: organism not typed; assay type: cell-based
Source text: (§2) As disclosed above, most of these bacteria strains are also relevant to infections of the ear and upper respiratory tract.

[6] = tested on: Gentamicin-resistant Pseudomonas aeruginosa; experiment: In vitro anti-bacterial activity, resistant clinical isolates, fifth test, Table 6; assay type: cell-based; details: read-out: MIC90
Source text: as §2

[7] = tested on: Gentamicin-resistant Staphylococcus aureus; experiment: as above; assay type: cell-based; details: read-out: MIC90
Source text: as §2

[8] = tested on: Ofloxacin-resistant Staphylococcus aureus; experiment: as above; assay type: cell-based; details: read-out: MIC90
Source text: as §2

[9] = tested on: Penicillin-resistant Streptococcus pneumoniae; experiment: as above; assay type: cell-based; details: read-out: MIC90
Source text: as §2

[10] = tested on: methicillin-resistant S. aureus; experiment: MIC90, Japanese Society of Chemotherapy guidelines (1993), Table 3; assay type: cell-based; details: Staphylococcus aureus, read-out: MIC90
Procedure: (§3) In a second test, compounds having Formulae IV and V, their racemic mixture, and OFLX were tested in vitro against S. aureus strains that are resistant to methicillin or penicillin. The test was conducted according to the guidelines of the Japanese Society of Chemotherapy (1993).

[11] = tested on: penicillin-resistant S. aureus; experiment: as above; assay type: cell-based; details: Staphylococcus aureus, read-out: MIC90
Procedure: as §3

[12] = tested on: Methicillin-Resistant S. aureus Isolates; experiment: In vitro anti-bacterial activity, fourth test, Table 5; assay type: cell-based, Staphylococcus aureus; details: Staphylococcus aureus, read-out: MIC90
Procedure: In a fourth test, the anti-bacterial activity of the compound having Formula IV was tested against some methicillin-resistant S. aureus bacteria strains and compared to the anti-bacterial activity of three commercially available antibiotics: nadifloxacin (“NDFX”), ofloxacin (“OFLX”), and sparfloxacin (“SPFX”).

[13] = tested on: S. aureus Clinical Isolates; experiment: In vitro activity against clinical isolates, sixth test, Table 7; assay type: cell-based; details: Staphylococcus aureus, 49 isolates
[14] = tested on: S. pneumoniae Clinical Isolates; experiment: as above; assay type: cell-based; details: 78 isolates

## CCn1cc(C(=O)O)c(=O)c2cc(F)c(N3CCNCC3)cc21 [NFLX, norfloxacin]
[1]
  MIC90 Range: ≦0.06 μg/ml
[1]; read-out: MIC90 Geometric Mean
  MIC90: ≤ 0.06 µg/mL
[1]; read-out: MIC90 Value
  MIC90: ≤ 0.06 µg/mL
[2]
  MIC90 Range: 0.5 to 128 µg/mL
[2]; read-out: MIC90 Geometric Mean
  MIC90: 5.66 µg/mL (≈ 17.7 µM)
[2]; read-out: MIC90 Value
  MIC90: 128 µg/mL (≈ 401 µM)
GM-resistant S. aureus; read-out: MIC90 Geometric Mean
  MIC90: 48.5 µg/mL (≈ 152 µM)
GM-resistant S. aureus; read-out: MIC90 Value
  MIC90: > 128 µg/mL
[3]
  MIC90 Range: 16 to 128 µg/mL
[3]; read-out: MIC90 Geometric Mean
  MIC90: 48.5 µg/mL (≈ 152 µM)
[3]; read-out: MIC90 Value
  MIC90: 128 µg/mL (≈ 401 µM)
OFLX-resistant S. aureus; read-out: MIC90 Geometric Mean
  MIC90: 194 µg/mL (≈ 608 µM)
OFLX-resistant S. aureus; read-out: MIC90 Value
  MIC90: > 128 µg/mL
[4]
  MIC90 Range: 2 to 8 µg/mL
[4]; read-out: MIC90 Geometric Mean
  MIC90: 4.29 µg/mL (≈ 13.4 µM)
[4]; read-out: MIC90 Value
  MIC90: 8 µg/mL (≈ 25.1 µM)
[5]
  MIC90: 128 µg/mL (≈ 401 µM)
[6]
  MIC90: 128 µg/mL (≈ 401 µM)
[7]
  MIC90: 128 µg/mL (≈ 401 µM)
[8]
  MIC90: > 128 µg/mL
[9]
  MIC90: 8 µg/mL (≈ 25.1 µM)

## CC1COc2c(N3CCN(C)CC3)c(F)cc3c(=O)c(C(=O)O)cn1c23 (stereo not drawn) [OFLX, ofloxacin]
[1]
  MIC90 Range: ≦0.06 μg/ml
[1]; read-out: MIC90 Geometric Mean
  MIC90: ≤ 0.06 µg/mL
[1]; read-out: MIC90 Value
  MIC90: ≤ 0.06 µg/mL
[2]
  MIC90 Range: 0.5 to 128 µg/mL
[2]; read-out: MIC90 Geometric Mean
  MIC90: 6.5 µg/mL (≈ 18 µM)
[2]; read-out: MIC90 Value
  MIC90: 64 µg/mL (≈ 177 µM)
GM-resistant S. aureus; read-out: MIC90 Geometric Mean
  MIC90: 16 µg/mL (≈ 44.3 µM)
GM-resistant S. aureus; read-out: MIC90 Value
  MIC90: > 128 µg/mL
[3]
  MIC90 Range: 8 to 64 µg/mL
[3]; read-out: MIC90 Geometric Mean
  MIC90: 21.1 µg/mL (≈ 58.4 µM)
[3]; read-out: MIC90 Value
  MIC90: 64 µg/mL (≈ 177 µM)
OFLX-resistant S. aureus; read-out: MIC90 Geometric Mean
  MIC90: 104 µg/mL (≈ 288 µM)
OFLX-resistant S. aureus; read-out: MIC90 Value
  MIC90: > 128 µg/mL
[4]
  MIC90 Range: 1 to 2 µg/mL
[4]; read-out: MIC90 Geometric Mean
  MIC90: 1.52 µg/mL (≈ 4.21 µM)
[4]; read-out: MIC90 Value
  MIC90: 2 µg/mL (≈ 5.53 µM)
[10]; ATCC33591, S. aureus (ATCC 33591)
  MIC90: 0.39 µg/mL (≈ 1.08 µM)
[10]; ATCC33592, S. aureus (ATCC 33592)
  MIC90: 0.2 µg/mL (≈ 0.553 µM)
[10]; ATCC33593, S. aureus (ATCC 33593)
  MIC90: 0.2 µg/mL (≈ 0.553 µM)
[10]; S. aureus (No. 395)
  MIC90: 0.39 µg/mL (≈ 1.08 µM)
[10]; S. aureus (No. 415)
  MIC90: 0.2 µg/mL (≈ 0.553 µM)
[10]; S. aureus (No. 419)
  MIC90: 0.39 µg/mL (≈ 1.08 µM)
[10]; S. aureus (No. 420)
  MIC90: 0.2 µg/mL (≈ 0.553 µM)
[10]; S. aureus (No. 421)
  MIC90: 0.39 µg/mL (≈ 1.08 µM)
[11]; ATCC11632, S. aureus (ATCC 11632)
  MIC90: 0.2 µg/mL (≈ 0.553 µM)
[11]; ATCC13301, S. aureus (ATCC 13301)
  MIC90: 0.2 µg/mL (≈ 0.553 µM)
[12]; ATCC33591, Staphylococcus aureus (ATCC 33591)
  MIC90: 0.05 µg/mL (≈ 0.138 µM)
[12]; ATCC33592, Staphylococcus aureus (ATCC 33592)
  MIC90: 0.39 µg/mL (≈ 1.08 µM)
[12]; ATCC33593, Staphylococcus aureus (ATCC 33593)
  MIC90: 0.2 µg/mL (≈ 0.553 µM)
[12]; Staphylococcus aureus (No. 395)
  MIC90: 0.2 µg/mL (≈ 0.553 µM)
[12]; Staphylococcus aureus (No. 415)
  MIC90: 0.78 µg/mL (≈ 2.16 µM)
[12]; Staphylococcus aureus (No. 419)
  MIC90: 3.13 µg/mL (≈ 8.66 µM)
[12]; Staphylococcus aureus (No. 420)
  MIC90: 1.56 µg/mL (≈ 4.32 µM)
[12]; Staphylococcus aureus (No. 421)
  MIC90: 1.56 µg/mL (≈ 4.32 µM)
[5]
  MIC90: 64 µg/mL (≈ 177 µM)
[6]
  MIC90: 64 µg/mL (≈ 177 µM)
[7]
  MIC90: 128 µg/mL (≈ 354 µM)
[8]
  MIC90: > 128 µg/mL
[9]
  MIC90: 2 µg/mL (≈ 5.53 µM)
[13]
  MIC90: 8 µg/mL (≈ 22.1 µM)
[14]
  MIC90 Range: 1 to 2 µg/mL
[14]; Streptococcus pneumoniae
  MIC90: 1 µg/mL (≈ 2.77 µM)
